# In ChEMBL document CHEMBL4393679, “Structure-Guided Drug Design of 6-Substituted Adenosine Analogues as Potent Inhibitors of Mycobacterium tuberculosis Adenosine Kinase” (J Med Chem, 2019):
# Calls of active or inactive are those of the source. The calls are words filed in the database; no cut-off is given here.
# What was measured:
# [1] = molecular target: Adenosine kinase (Mycobacterium tuberculosis (strain ATCC 25618 / H37Rv)) (UniProt P9WID5); assay: Inhibition of wild-type N-terminal TEV cleavage site-fused/His-tagged Mycobacterium tuberculosis H37Rv adenosine kinase expressed in Escherichia coli BL21 (DE3) at 12.5 uM using adenosine as substrate in presence of ATP and PEP by pyruvate kinase-lactate dehydrogenase coupled UV-vis spectrophotometric method relative to control
# Chain of Adenosine kinase (Mycobacterium tuberculosis (strain ATCC 25618 / H37Rv)) (P9WID5 2-324 limits assumed): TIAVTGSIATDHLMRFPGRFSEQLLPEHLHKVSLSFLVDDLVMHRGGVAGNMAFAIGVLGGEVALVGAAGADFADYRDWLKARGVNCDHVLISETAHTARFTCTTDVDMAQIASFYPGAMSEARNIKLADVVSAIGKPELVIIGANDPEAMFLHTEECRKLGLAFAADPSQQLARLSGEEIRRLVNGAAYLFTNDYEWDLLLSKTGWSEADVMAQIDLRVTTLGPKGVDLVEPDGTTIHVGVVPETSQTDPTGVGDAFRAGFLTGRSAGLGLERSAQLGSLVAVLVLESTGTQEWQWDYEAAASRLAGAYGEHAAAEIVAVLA
# [2] = Toxicity in ND4 Swiss Webster mouse at 50 to 200 mg/kg, po administered once daily via gavage for 3 days measured twice daily during compound dosing; format: organism-based; conditions: in vivo, 72 h
# [3] = molecular target: Adenosine kinase (Mycobacterium tuberculosis (strain ATCC 25618 / H37Rv)) (UniProt P9WID5); assay: Competitive-inhibition of wild-type N-terminal TEV cleavage site-fused/His-tagged Mycobacterium tuberculosis H37Rv adenosine kinase expressed in Escherichia coli BL21 (DE3) using varying levels of adenosine as substrate in presence of ATP and PEP by pyruvate kinase-lactate dehydrogenase-coupled UV-vis spectrophotometric based Cheng-Prusoff equation analysis
# [4] = Toxicity in ND4 Swiss Webster mouse assessed as change in body weight at 50 to 200 mg/kg, po administered once daily via gavage for 3 days measured twice daily during compound dosing; format: organism-based; conditions: in vivo, 72 h
# [5] = Toxicity in ND4 Swiss Webster mouse at 10 mg/kg, po administered as single dose via gavage; format: organism-based; conditions: in vivo
SMILES,inhibition [1] [%],Activity [2],inhibition [3],Activity [4],Activity [5]
Cc1ccc(S(=O)(=O)NC[C@H]2O[C@@H](n3cnc4c(N5CCN(c6ccc(C(F)(F)F)cc6)CC5)ncnc43)[C@H](O)[C@@H]2O)cc1,53,,,,
OC[C@H]1O[C@@H](n2cnc3c(N4CCN(c5ccc(-c6ccccc6)cc5)CC4)ncnc32)[C@H](O)[C@@H]1O,,Non-Toxic,Active,Non-Toxic,Non-Toxic
